Values quoted from earlier work, collected in publication PMC7211198, “Phase 1b study of a small molecule antagonist of human chemokine (C-C motif) receptor 2 (PF-04136309) in combination with nab-paclitaxel/gemcitabine in first-line treatment of metastatic pancreatic ductal adenocarcinoma” (Investigational New Drugs, 2019).
Read-outs that look alike come from different tables or passages of the source.

Tested on: advanced pancreatic cancer
Settings: cited from earlier work

For `Nc1ccn([C@@H]2O[C@H](CO)[C@@H](O)C2(F)F)c(=O)n1` [gemcitabine], the “Observed rate of pneumonitis” value (gemcitabine combined with nab-paclitaxel) is listed as “up to 4%” and the “Observed rate of pneumonitis” value (patients treated with gemcitabine) is listed as “approximately 1%”.
